{
  "source": "paper PMC6588697",
  "about": "“Lugdunin amplifies innate immune responses in the skin in synergy with host- and microbiota-derived factors” (Nature Communications, 2019)",
  "key": {"mouse skin": {"tested_on": "mouse skin", "experiment": "Immune cell composition of mouse skin after epicutaneous treatment (flow cytometry)", "format": "in vivo, C57BL/6 WT, MyD88-ko, 5xTLR-ko mice", "details": "for percentage of monocytes (Ly6C+Ly6G−) of CD11b+CD45+ live cells / percentage of neutrophils (Ly6C+Ly6G+) of CD11b+CD45+ live cells: Fig 3d", "experimental": "Fig. 3 Epicutaneous lugdunin recruits phagocytic cells. a Schematic overview of the mouse experiments: 6–8-week-old female C5BL/6 wild-type (WT), MyD88-ko, or 5xTLR-ko mice were epicutaneously treated with 1.5 µg lugdunin or phosphate-buffered saline (PBS) as a control. After 24 h, mice were euthanized, immune cells were isolated from treated skin areas, and immune cell composition was analyzed by flow cytometry. b Shown is the mean percentage of CD45+ live cells in mouse skin of 10 C57BL/6 WT mice ± s.e.m. One mouse is represented as two dots analyzed by two different stainings. c Pie charts show the mean percentage of the different immune cell subsets in the skin of 10 WT mice after 24 h of PBS or lugdunin treatment. d Shown are representative flow cytometry data (left panel) and the mean percentage of neutrophils (Ly6C+Ly6G+) and monocytes (Ly6C+Ly6G−) pregated on CD11b+CD45+ live cells (see Supplementary Fig. 3a, f for the gating strategy) in mouse skin ± s.e.m. One dot represents one mouse. *P < 0.05. e Representative myeloperoxidase (MPO)-stained paraffin-embedded mouse skin sections. Scale bar, 100 µM. Source data are provided as a Source Data file TEXT PRINTED IN THE PICTURE: (c) PBS: NK cells: 21%; B cells: 0%; T cells: 10%; Dendritic cells: 8%; CD11b+ cells: 43%; Others: 18%; Macrophages: 73%; Monocytes: 15%; Neutrophils: 3%; Others: 9% | (c) Lugdunin: NK cells: 18%; B cells: 0%; T cells: 11%; Dendritic cells: 10%; CD11b+ cells: 45%; Others: 16%; Macrophages: 64%; Monocytes: 21%; Neutrophils: 6%; Others: 9% | (d) PBS: Monocytes 13,3 (WT); Neutrophils 2,51 (WT); Q4 83,6 (WT); Q3 0,53 (WT); Monocytes 2,34 (MyD88-ko); Neutrophils 0,95 (MyD88-ko); Q4 94,4 (MyD88-ko); Q3 2,27 (MyD88-ko); Monocytes 12,8 (5xTLR-ko); Neutrophils 0,88 (5xTLR-ko); Q4 85,0 (5xTLR-ko); Q3 1,32 (5xTLR-ko) | (d) Lugdunin: Monocytes 17,3 (WT); Neutrophils 11,1 (WT); Q4 70,6 (WT); Q3 0,99 (WT); Monocytes 3,14 (MyD88-ko); Neutrophils 0,54 (MyD88-ko); Q4 94,9 (MyD88-ko); Q3 1,41 (MyD88-ko); Monocytes 12,9 (5xTLR-ko); Neutrophils 1,74 (5xTLR-ko); Q4 84,3 (5xTLR-ko); Q3 1,06 (5xTLR-ko) DOUBTS OF THE COPYIST ABOUT THIS PICTURE: Panel c: the percentages are printed on the pie slices without cell-type names. They were matched to cell types only by the colour legend, so the match is not certain, especially among the blue shades of the lower pies. / PBS is the vehicle control, not a test substance. Its values are given because they are printed under that name. / Panel d: the quadrant numbers are in very small print, so 3, 5, 6, 8 and 9 cannot be told apart with certainty. / PBS WT, Monocytes 13,3: either 3 could be 8 / PBS WT, Neutrophils 2,51: 5 could be 6 / PBS WT, Q4 83,6: 8, 3 and 6 uncertain / PBS WT, Q3 0,53: 5 and 3 uncertain / PBS MyD88-ko, Monocytes 2,34: 3 could be 8 / PBS MyD88-ko, Neutrophils 0,95: 9 and 5 uncertain / PBS MyD88-ko, Q4 94,4: 9 uncertain / PBS 5xTLR-ko, Monocytes 12,8: 8 could be 3 / PBS 5xTLR-ko, Neutrophils 0,88: either 8 uncertain / PBS 5xTLR-ko, Q4 85,0: 8 and 5 uncertain / PBS 5xTLR-ko, Q3 1,32: 3 could be 8 / Lugdunin WT, Monocytes 17,3: 3 could be 8 / Lugdunin WT, Q4 70,6: 6 could be 8 / Lugdunin WT, Q3 0,99: either 9 uncertain / Lugdunin MyD88-ko, Monocytes 3,14: 3 could be 8 / Lugdunin MyD88-ko, Neutrophils 0,54: 5 could be 6 / Lugdunin MyD88-ko, Q4 94,9: either 9 uncertain / Lugdunin 5xTLR-ko, Monocytes 12,9: 9 could be 8 / Lugdunin 5xTLR-ko, Q4 84,3: 8 and 3 uncertain / Lugdunin 5xTLR-ko, Q3 1,06: 6 could be 8\nTo analyze the immune cell composition and cytokines in the skin, 15 µL containing 1.5 μg lugdunin or PBS as a control were epicutaneously applied for 24 h on the shaved back skin of C57BL/6 WT/MYD88-ko/5xTLR-ko mice. After 24 h, mice were euthanized and relevant skin areas or 4 mm skin punches were removed for immune cell analysis and LEGENDplex^TM (BioLegend) cytokine analysis. […]"}, "HNEpCs": {"tested_on": "HNEpCs", "experiment": "CXCL8 expression in HNEpCs (qRT-PCR)", "format": "cell-based, human", "details": "5 h, two technical replicates", "experimental": "Quantitative reverse transcription-polymerase chain reaction (qRT-PCR) was performed in 10 µL reaction volume with SYBR^TM Green PCR Master Mix (Thermo Fisher) according to the manufacturer’s instructions using a LightCycler 96 (Roche Life Science). The initial denaturation step was at 95 °C for 5 min, followed by 40 cycles with 10 s each for the denaturation step at 95 °C, the annealing at individual temperature, and the elongation at 72 °C. Primer sequences and respective annealing temperatures are listed in Supplementary Table 1. […]\n31 g+h+i: HNEpCs (b), HTEpCs (c) or PBMCs (d) were treated with increasing\n32 concentrations of lugdunin (grey bars) or 100 ng/mL Pam2Cys or Pam3Cys (white\n33 bars) as positive controls for 5 hours and subsequently expression of CXCL8 was\n34 analyzed and normalized to actin. Black bar: medium control. Shown is one\n35 representative experiment of three independent experiments with two technical\n36 replicates +/-s.e.m. Significant differences to control treatments were analyzed by\n37 ordinary one-way ANOVA followed by Dunnett’s multiple comparisons test (*P<0.05; […]"}, "[1]": {"details": "5xTLR-ko mice, 1.5 µg lugdunin 24 h, one value per mouse"}, "[2]": {"details": "MyD88-ko mice, 1.5 µg lugdunin 24 h, one value per mouse"}, "[3]": {"details": "WT mice, 1.5 µg lugdunin 24 h, one value per mouse"}},
  "note": "Several values for one entry are separate records, joined by “and”; a condition that tells them apart may be missing. Equal values may be shown once.",
  "data": [
    {"substance": "Lugdunin", "values": [
      {"measurement": "percentage of monocytes (Ly6C+Ly6G−) of CD11b+CD45+ live cells", "setting": "mouse skin; [1]", "value": "completely impaired and 20.3% and 17.1% and 9.43% and 21.4% and 16.9% and 6.11% and 12.9%"},
      {"measurement": "percentage of neutrophils (Ly6C+Ly6G+) of CD11b+CD45+ live cells", "setting": "mouse skin; [1]", "value": "completely impaired and 5.72% and 2.72% and 4.06% and 8.41% and 1.29% and 0.57% and 1.74%"},
      {"measurement": "percentage of CD45+ live cells in mouse skin", "setting": "mouse skin; 10 WT mice, 1.5 µg lugdunin epicutaneous 24 h, each mouse two values (two stainings), Fig 3b", "value": "14.9% and 13.5% and 14.7% and 11.7% and 14.6% and 11.5% and 13.9% and 11.3% and 13.1% and 10.2% and 12.2% and 10.7% and 12.3% and 10.1% and 6.9% and 8.55%"},
      {"measurement": "percentage of monocytes (Ly6C+Ly6G−) of CD11b+CD45+ live cells", "setting": "mouse skin; [2]", "value": "completely impaired and 8.96% and 15.5% and 8.8% and 15.6% and 3.14% and 1.49% and 4.64% and 1.54%"},
      {"measurement": "percentage of neutrophils (Ly6C+Ly6G+) of CD11b+CD45+ live cells", "setting": "mouse skin; [2]", "value": "completely impaired and 2.26% and 5.17% and 2.81% and 2.01% and 0.54% and 0.23% and 0.5% and 0.44%"},
      {"measurement": "percentage of monocytes (Ly6C+Ly6G−) of CD11b+CD45+ live cells", "setting": "mouse skin; [3]", "value": "significantly enhanced recruitment and 15.8% and 17.3% and 13.3% and 8.16% and 21.5% and 17.9% and 10.5% and 16.5% and 16% and 7.28%"},
      {"measurement": "percentage of neutrophils (Ly6C+Ly6G+) of CD11b+CD45+ live cells", "setting": "mouse skin; [3]", "value": "significantly enhanced recruitment and 2.57% and 6.43% and 4.87% and 2.11% and 8.34% and 11.1% and 2.51% and 1.25% and 4.02% and 5.05%"},
      {"measurement": "NK cells, % NK1.1+ cells of live CD45+ cells", "setting": "mouse skin; WT mice, 1.5 µg lugdunin 24 h, one value per mouse, Supp Fig 3b", "value": "17.7% and 16.5% and 19.9% and 14.6% and 15.5% and 15.6% and 22.8% and 24.4% and 19.7% and 17.2%"},
      {"measurement": "B cells, % CD19+ cells of live CD45+ cells", "setting": "mouse skin; WT mice, 1.5 µg lugdunin 24 h, one value per mouse, Supp Fig 3c", "value": "0% and 0.14% and 0.15% and 0.03% and 0.04% and 0.05% and 0.01% and 0.02%"},
      {"measurement": "Dendritic cells, % CD11c+ cells of live CD45+ cells", "setting": "mouse skin; WT mice, 1.5 µg lugdunin 24 h, one value per mouse, Supp Fig 3e", "value": "16.5% and 7.96% and 9.38% and 7.83% and 7.66% and 8.63% and 12.4% and 7.01% and 13.5% and 11.2%"},
      {"measurement": "CD11b+ cells, % of live CD45+ cells", "setting": "mouse skin; WT mice, 1.5 µg lugdunin 24 h, one value per mouse, Supp Fig 3f", "value": "25.3% and 49.5% and 44.6% and 53.3% and 45% and 48.5% and 39.3% and 50.8% and 43.6%"},
      {"measurement": "Macrophages, % F4/80+ cells of CD11b+ CD45+ live cells", "setting": "mouse skin; WT mice, 1.5 µg lugdunin 24 h, one value per mouse, Supp Fig 3g", "value": "slightly reduced and 61.4% and 62.3% and 69.6% and 70.5% and 63.1% and 61.1% and 64.2% and 53.1% and 77.9%"},
      {"measurement": "T cells, % CD3+ cells of live CD45+ cells", "setting": "mouse skin; WT mice, 1.5 µg lugdunin 24 h, one value per mouse, Supp Fig 3d", "value": "14.9% and 10.6% and 8% and 7.67% and 10.1% and 12.6% and 9.79% and 11.5% and 8.32% and 13.4%"},
      {"measurement": "CXCL8 fold induction", "setting": "HNEpCs; lugdunin 0.5 µM, sheet Supp Fig 1f", "value": "2.151 and 2.454"},
      {"measurement": "CXCL8 fold induction", "setting": "HNEpCs; lugdunin 1 µM", "value": 2.621},
      {"measurement": "CXCL8 fold induction", "setting": "HNEpCs; lugdunin 2 µM", "value": "6.148 and 8.056"},
      {"measurement": "CXCL8 fold induction", "setting": "HNEpCs; lugdunin 3 µM", "value": "5.836 and 8.253"},
      {"measurement": "CXCL8 fold induction", "setting": "HNEpCs; lugdunin 5 µM", "value": "4.724 and 6.453"},
      {"measurement": "CXCL8 fold induction", "setting": "HNEpCs; lugdunin 10 µM", "value": "1.659 and 2.014"}
    ]}
  ]
}
